Test [1] relates to ERK1/2 phosphorylation in EAhy926 endothelial cells. Description: ERK1/2 phosphorylation in EA.hy.926 endothelial cells, Western blot of lysates (LI-COR Odyssey). It is filed as cell-based, human. Particulars: 5 min; 10 nM APC or thrombin, 10 μM TFLL peptide, 50 μM TR47-66 or scr-TR47-66. How it is done: To assess whether PAR1 cleaved at Arg^46 would generate a PAR1 N-terminus that is capable of promoting PAR1 signaling, we studied the effects of synthetic peptides on ERK1/2 phosphorylation in EAhy926 endothelial cells. […] Relative phosphorylation of ERK1/2 was determined using the LI-COR Odyssey infrared imaging system which permits quantitative analysis over a wide dynamic range.
In this figure (left), anti-pT202Y204-ERK1/2 antibodies appear green while total anti-ERK1/2 antibodies appear red, and orange intensity reflects overlaps. […] The signal for phosphorylated ERK1/2 (green channel) was normalized to the signal for total ERK1/2 antigen (red channel) to quantify relative phosphorylation as a ratio, and the results are seen in the bar graph. […] The control scr-TR47-66 peptide (scrambled residues 47-66) caused no increase.
Methods: EA.hy.926 cells (ATCC; CRL-2922) were grown in 6-well plates in DMEM (Invitrogen #12430) supplemented with glutamax (Invitrogen #35050) and 10% FBS (Hyclone #35-011-CV) in a 37° C. cell incubator with a humidified atmosphere and 5% CO2 in air until confluency. […] Subsequently cells were resuspended in lysis buffer with protein and phosphatase inhibitors, cell lysates were applied to SDS-PAGE gel electrophoresis on 10% Bis-Tris gels with MOPS running buffer (Invitrogen) and transferred to PVDF membrane (Millipore) for Western blot analysis. Blots were blocked in Odyssey blocking buffer (Licor) and incubated with a combination of mouse anti-ERK1/2 (1/2000; Cell Signaling #3A7) and rabbit anti-pT202/204 ERK1/2 (1/1000; cell signaling #D13.14.4E) antibodies in Odyssey blocking buffer (Licor). After washing, blots were incubated with RDye680-labeled donkey anti-mouse (1/10,000; Licor) and IRDye800CW-labeled donkey anti-rabbit (1/10,000), washed again with PBS/0.1% Tween and IR fluorescence of bound antibodies was determined using the Odyssey (Licor).

Test [2] concerns Akt phosphorylation at Ser473 in EA.hy.926 human endothelial cells. Description: Akt Ser473 phosphorylation in EA.hy.926 endothelial cells (in-cell Western). It is filed as cell-based. Particulars: for Ser473-Akt phosphorylation (activation of Akt): Example 7, under the employed experimental conditions; for pSer473-Akt (Akt phosphorylation): 0, 5 or 30 min, TFLL 50 μM, NPND 250 μM, scr-NPND 250 μM. From the text: (§1) Activated Protein C (APC) cleaves a synthetic PAR1 tail peptide at Arg^41 and Arg^46; furthermore, APC cleaves SEAP-PAR1 mutants with the mutations R41A or R41Q but not SEAP-PAR1 with both R41Q/R46Q mutations. […] It was thus hypothesized that a new PAR1 N-terminus beginning at residue Asn-47 promotes PAR1 signaling and APC cytoprotective activities. Since phosphorylation of signaling network components is useful for monitoring activation of signaling pathways, the effects of synthetic PAR1 peptides on Akt and ERK1/2 phosphorylation in EA.hy.926 human endothelial cells were studied. Cells were treated for 0, 5 or 30 min with peptides prior to cell fixation, permeabilization of cells and subsequent immunoblotting analysis (“in-cell Western blotting”). Relative phosphorylation of Akt at Ser^473 (pSer^473-Akt) or of ERK1/2 at Thr202/204 (pERK1/2) in endothelial cells was quantified using the LI-COR Odyssey infrared (IR) fluorescence imaging system which permits “in cell” Western blots. The Odyssey permits simultaneous quantification of different antibodies that yield either red or green signals.
(§2) Methods: EA.hy.926 cells (ATCC: CRL-2922) were grown in black clear bottom 96 well plates (Nunc) in DMEM (Invitrogen #12430) supplemented with glutamax (Invitrogen #35050) and 10% FBS (Hyclone #35-011-CV) in a 37° C. cell incubator with a humidified atmosphere and 5% CO2 in air until confluency. Cells were treated for 0, 5 or 30 min with PAR1 peptides TFLL (50 μM), NPND (250 μM) or scr-NPND (250 μM) or with vehicle in serum free media. Subsequently cells were fixed with methanol free 4% para-formaldehyde (Pierce), washed with phosphate buffered saline (PBS; Invitrogen) containing 1% triton X-100 and blocked with Odyssey blocking buffer (Licor). Cells were incubated with rabbit anti-pT202/Y204 ERK1/2 (1/1000; Cell signaling D13.14.4E) or rabbit anti-pSer^473 (1/100; cell signaling D9E) with Odyssey blocking buffer. After washing with PBS/0.1% Tween (1/800), IRDye 800CW-labelled secondary goat anti-rabbit antibodies (Licor) were added to the cells in Odyssey blocking buffer and 1/10,000 Draq5 (Biostatus) for cell normalization. After final washing with PBS/0.1% Tween IR, the fluorescence of bound antibodies was determined using the Odyssey (Licor). Background fluorescence was determined by omitting the primary antibody and subtracting values for controls from all other observed values.

In test [3] the test system is ERK1/2 phosphorylation at Thr202/204 in EA.hy.926 human endothelial cells. Description: ERK1/2 phosphorylation in EA.hy.926 endothelial cells (in-cell Western). Particulars: for ERK1/2 phosphorylation (pERK1/2): 0, 5 or 30 min, TFLL 50 μM, NPND 250 μM, scr-NPND 250 μM; for activation of ERK1/2: Example 7. It is filed as cell-based.
Source text: as §1, §2

Test [4] concerns glycogen synthase kinase 3β (GSK3β) phosphorylation at Ser9. Put plainly: GSK3β Ser9 phosphorylation in endothelial cells. It is filed as cell-based, human. The conditions noted are these: for Ser9-GSK3β phosphorylation: Example 6. The method, then: To further confirm activation of Akt by the TR47-66 peptide, Akt-mediated inactivation of glycogen synthase kinase 3β (GSK3β) via phosphorylation at Ser9 was determined. GSK3β is a well-known downstream substrate for Akt.

For the substance thrombin, the “increase in ERK1/2 phosphorylation (phospho/total ERK1/2 ratio)” value (“increase … (phospho/total ERK1/2 ratio)” for short) in test [1] was 3 fold. For the same substance, the “Ser473-Akt phosphorylation (activation of Akt)” value (“Ser473-Akt phosphorylation” below) in test [2] is recorded as “neither thrombin nor TRAP induced”.

In the case of “GDENENEKPNWYELKEPDSF (scrambled sequence) [scr-TR47-66, control scrambled TR47-66 peptide containing scrambled residues 47-66, reference compound]”, the “increase … (phospho/total ERK1/2 ratio)” value in test [1] is reported as “no increase”. For the same substance, the “pSer473-Akt (Akt phosphorylation)” value in test [2] is given as “essentially no effect”. In addition, the “ERK1/2 phosphorylation (pERK1/2)” value in test [3] was “essentially no effect”. Also, in test [4], the Ser9-GSK3β phosphorylation entry is on record as “no phosphorylation”.

As to “APC: Activated Protein C, serine protease with anticoagulant and cytoprotective cell signaling activities”, in test [1], the “increase … (phospho/total ERK1/2 ratio)” value was 1.5 fold. Also, the “Ser473-Akt phosphorylation” value in test [2] was “robust activation of Akt”. The “activation of ERK1/2” value in test [3] is on record as “transient but modest activation”. In test [4] (Example 7), the “phosphorylation of GSK3β at Ser9” value is given as “sustained phosphorylation”.

Take “NPNDKYEPFWEDEEKNESGL (listed as Homo sapiens) [TR47-66]”: in test [2], the “pSer473-Akt (Akt phosphorylation)” value is recorded as “increased Akt phosphorylation at Ser^47” and the “Ser473-Akt phosphorylation” value is on record as “induced activation of Akt”. Besides, the “pSer473-Akt (Akt phosphorylation)” value in test [2] (listed as NPND) is “time-dependent sustained increase”. Besides, the “Akt phosphorylation at Ser473 in the presence of the PAR1 inhibitor SCH79797” value in test [2] (with SCH79797) is on record as “failed to induce Akt phosphorylation”. In addition, in test [3], the “ERK1/2 phosphorylation (pERK1/2)” value is “essentially no effect” and the “activation of ERK1/2” value was “failed to induce any noticeable activation”. The Ser9-GSK3β phosphorylation result in test [4] is “induced significant Ser9-GSK3β phosphorylation starting at 30 min”.
